Where “and” joins values, the source holds several entries; their conditions need not be identical. Equal entries are not always repeated. Toxic doses and inconclusive results are not listed. Cut-off read from the data, not from the text of the source: active = T/C of 150% or more; inactive = T/C below 125%.
Tested on: L1210 leukemia ip in BDF1 mice, survival T/C
Experiment: NCI In Vivo Anticancer Drug Screen. Data for tumor model L1210 Leukemia (intraperitoneal) in B6D2F1 (BDF1) mice
Settings: endpoint: mean survival time, higher = longer survival
In short: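 Read-out is survival time, reported as the treated-group measurement over the vehicle-control measurement.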

[1] = dose: 100.0 mg/kg/injection, schedule: Q04DX003 (ip), vehicle: saline with Tween-80
[2] = dose: 200.0 mg/kg/injection, schedule: Q04DX003 (ip), vehicle: saline with Tween-80
[3] = dose: 400.0 mg/kg/injection, schedule: Q04DX003 (ip), vehicle: saline with Tween-80
[4] = dose: 50.0 mg/kg/injection, schedule: Q01DX009 (ip), vehicle: saline with Tween-80

Measured: T/C

C/C=C\c1ccc(OC(=O)c2ccc([N+](=O)[O-])cc2)c(OC)c1
inactive: dose: 100.0 mg/kg/injection, schedule: Q01DX001 (ip), vehicle: other 97 % of control | dose: 200.0 mg/kg/injection, schedule: Q01DX001 (ip), vehicle: other 106 % of control | dose: 400.0 mg/kg/injection, schedule: Q01DX001 (ip), vehicle: other 94 % of control

Cc1cccc(C)c1N=C=O
inactive: dose: 100.0 mg/kg/injection, schedule: Q01DX009 (ip), vehicle: other 93 % of control | [1] 105 % of control | dose: 200.0 mg/kg/injection, schedule: Q01DX009 (ip), vehicle: other 106 % of control | [2] 100 % of control | [3] 109 % of control

NC(=S)Nc1ccccc1
inactive: dose: 5.0 mg/kg/injection, schedule: Q01DX001 (ip), vehicle: saline 100 % of control | dose: 10.0 mg/kg/injection, schedule: Q01DX001 (ip), vehicle: saline 96 % of control | dose: 20.0 mg/kg/injection, schedule: Q01DX001 (ip), vehicle: saline 102 % of control | dose: 40.0 mg/kg/injection, schedule: Q01DX001 (ip), vehicle: saline 101 % of control | dose: 80.0 mg/kg/injection, schedule: Q01DX001 (ip), vehicle: saline 97 % of control

COc1cc(NS(=O)(=O)c2ccc(C)cc2)c2c(c1N)C(=O)c1ccccc1C2=O
inactive: dose: 100.0 mg/kg/injection, schedule: Q01DX009 (ip), vehicle: saline with Tween-80 105 % of control | [1] 98 % of control | dose: 200.0 mg/kg/injection, schedule: Q01DX009 (ip), vehicle: saline with Tween-80 94 % of control | [2] 98 % of control | dose: 400.0 mg/kg/injection, schedule: Q01DX009 (ip), vehicle: saline with Tween-80 100 % of control | [3] 93 % of control

N#Cc1cn(C2OC(CO)C(O)C2O)c2ncn(O)c(=N)c12 (centres undefined)
inactive: dose: 0.19 mg/kg/injection, schedule: Q01DX005 (ip), vehicle: saline 112 % of control | dose: 0.19 mg/kg/injection, schedule: Q01DX009 (ip), vehicle: saline 107 % of control | dose: 0.39 mg/kg/injection, schedule: Q01DX005 (ip), vehicle: saline 96 % of control | dose: 0.39 mg/kg/injection, schedule: Q01DX009 (ip), vehicle: saline 97 % of control | dose: 0.78 mg/kg/injection, schedule: Q01DX005 (ip), vehicle: saline 100 % of control | dose: 0.78 mg/kg/injection, schedule: Q01DX009 (ip), vehicle: saline 100 % of control | dose: 1.56 mg/kg/injection, schedule: Q01DX005 (ip), vehicle: saline 94 % of control

CCOC(=O)c1ccc2ccccc2n1
inactive: dose: 75.0 mg/kg/injection, schedule: Q01DX001 (ip), vehicle: saline 109 % of control | dose: 150.0 mg/kg/injection, schedule: Q01DX001 (ip), vehicle: saline 96 % of control

CC1CCC(C)C([N+](C)(C)C)C1 (centres undefined)
inactive: dose: 12.5 mg/kg/injection, schedule: Q04DX003 (ip), vehicle: saline 98 % of control | dose: 25.0 mg/kg/injection, schedule: Q04DX003 (ip), vehicle: saline 98 % of control | dose: 50.0 mg/kg/injection, schedule: Q04DX003 (ip), vehicle: saline 95 % of control | dose: 75.0 mg/kg/injection, schedule: Q04DX003 (ip), vehicle: saline 93 % of control

Cc1ccc(NC(=S)NC(=O)c2cccc([N+](=O)[O-])c2)cc1C
inactive: [4] 97 % of control and 112 % of control | dose: 100.0 mg/kg/injection, schedule: Q01DX001 (ip), vehicle: saline with Tween-80 92 % of control | dose: 100.0 mg/kg/injection, schedule: Q04DX002 (ip), vehicle: alcohol 93 % of control and 103 % of control | [1] 95 % of control | dose: 200.0 mg/kg/injection, schedule: Q01DX001 (ip), vehicle: saline with Tween-80 101 % of control | dose: 200.0 mg/kg/injection, schedule: Q04DX002 (ip), vehicle: alcohol 93 % of control and 103 % of control | [2] 94 % of control | dose: 400.0 mg/kg/injection, schedule: Q01DX001 (ip), vehicle: saline with Tween-80 98 % of control | dose: 400.0 mg/kg/injection, schedule: Q04DX002 (ip), vehicle: alcohol 93 % of control and 98 % of control | [3] 106 % of control

O=C(NC/C(Cl)=C/Cl)Oc1cccc2ccccc12
inactive: dose: 75.0 mg/kg/injection, schedule: Q01DX009 (ip), vehicle: Klucel (hydroxypropylcellulose) (HPC) 107 % of control | dose: 150.0 mg/kg/injection, schedule: Q01DX009 (ip), vehicle: Klucel (hydroxypropylcellulose) (HPC) 104 % of control | dose: 300.0 mg/kg/injection, schedule: Q01DX009 (ip), vehicle: Klucel (hydroxypropylcellulose) (HPC) 98 % of control

O=c1[nH]cnc2c1ncn2Cc1cccc(Cl)c1
inactive: dose: 50.0 mg/kg/injection, schedule: Q04DX002 (ip), vehicle: Klucel (hydroxypropylcellulose) (HPC) 86 % of control | dose: 100.0 mg/kg/injection, schedule: Q04DX002 (ip), vehicle: Klucel (hydroxypropylcellulose) (HPC) 94 % of control | dose: 200.0 mg/kg/injection, schedule: Q04DX002 (ip), vehicle: Klucel (hydroxypropylcellulose) (HPC) 91 % of control

Cc1nn(C)c2c(N)ncnc12
inactive: dose: 75.0 mg/kg/injection, schedule: Q01DX001 (ip), vehicle: other 100 % of control | dose: 150.0 mg/kg/injection, schedule: Q01DX001 (ip), vehicle: other 102 % of control | dose: 300.0 mg/kg/injection, schedule: Q01DX001 (ip), vehicle: other 98 % of control

c1ccc2c(c1)Cc1ccccc1CN(CCNC1=NCCN1)C2
inactive: dose: 25.0 mg/kg/injection, schedule: Q01DX009 (ip), vehicle: saline with Tween-80 91 % of control | [4] 102 % of control | [1] 98 % of control

NC(N)=N/N=C(/CC(=O)c1ccccc1)c1ccccc1
inactive: dose: 15.0 mg/kg/injection, schedule: Q01DX Z (ip), vehicle: carboxymethylcellulose (CMC) 103 % of control | dose: 30.0 mg/kg/injection, schedule: Q01DX Z (ip), vehicle: carboxymethylcellulose (CMC) 107 % of control | dose: 30.0 mg/kg/injection, schedule: Q01DX Z (oral), vehicle: carboxymethylcellulose (CMC) 98 % of control | dose: 60.0 mg/kg/injection, schedule: Q01DX Z (ip), vehicle: carboxymethylcellulose (CMC) 101 % of control | dose: 60.0 mg/kg/injection, schedule: Q01DX Z (oral), vehicle: carboxymethylcellulose (CMC) 96 % of control | dose: 120.0 mg/kg/injection, schedule: Q01DX Z (oral), vehicle: carboxymethylcellulose (CMC) 98 % of control | dose: 240.0 mg/kg/injection, schedule: Q01DX Z (oral), vehicle: carboxymethylcellulose (CMC) 93 % of control and 100 % of control | dose: 480.0 mg/kg/injection, schedule: Q01DX Z (oral), vehicle: carboxymethylcellulose (CMC) 100 % of control

O=c1[nH]c(=S)[nH]cc1Cc1cccc2ccccc12
inactive: dose: 25.0 mg/kg/injection, schedule: Q01DX001 (ip), vehicle: Klucel (hydroxypropylcellulose) (HPC) 104 % of control | dose: 50.0 mg/kg/injection, schedule: Q01DX001 (ip), vehicle: Klucel (hydroxypropylcellulose) (HPC) 94 % of control | dose: 100.0 mg/kg/injection, schedule: Q01DX001 (ip), vehicle: Klucel (hydroxypropylcellulose) (HPC) 92 % of control

CCCCCCCCCCCCCCCC(=O)OCCCCCCCCCCCCC
inactive: [1] 95 % of control | [2] 90 % of control | [3] 86 % of control

O=C(O)C(Sc1ccccc1)c1ccccc1 (centres undefined)
inactive: dose: 100.0 mg/kg/injection, schedule: Q04DX002 (ip), vehicle: gum acacia 100 % of control | dose: 200.0 mg/kg/injection, schedule: Q04DX002 (ip), vehicle: gum acacia 100 % of control | dose: 400.0 mg/kg/injection, schedule: Q04DX002 (ip), vehicle: gum acacia 104 % of control

Nc1nc(N)c(CCCCc2ccc([N+](=O)[O-])cc2)c(N)n1
inactive: dose: 100.0 mg/kg/injection, schedule: Q01DX009 (ip), vehicle: Klucel (hydroxypropylcellulose) (HPC) 100 % of control | dose: 200.0 mg/kg/injection, schedule: Q01DX009 (ip), vehicle: Klucel (hydroxypropylcellulose) (HPC) 102 % of control | dose: 400.0 mg/kg/injection, schedule: Q01DX009 (ip), vehicle: Klucel (hydroxypropylcellulose) (HPC) 94 % of control

— PubChem BioAssay AID248 (DTP/NCI, 2004)
